Experiments:
[1] = Tolerability (body weight, deaths) in the MCF7-Y537S xenograft study; format: in vivo
Experimental: The animals required for experiment (plus extra) were pooled and implanted with MCF7-Y537S tumor fragment tissues. […] Animal body weight was assessed daily.
The dosages are expressed in mg/kg and based on daily body weight per animal. Vehicle treated animals were used as controls. Mice were checked daily and adverse clinical reactions noted. Individual mice were weighed daily until the end of the experiment. Mice would be euthanized when morbid or weight loss ≥20% was observed. Tumors were measured with a caliper twice weekly until final sacrifice. When a tumor size reached approximately 2000 mm^3 or when there are animal health issues (40% area of a tumor ulcerated), animals would be euthanized and date of death recorded. Solid tumor volumes were estimated from two-dimensional tumor measurements and calculated according to the following equation: […]
Animal body weight included the tumor weight.

[2] = tested on: MCF7-Y537S human breast cancer cell line xenograft; assay: Anti-tumor efficacy against subcutaneous MCF7-Y537S human breast cancer cell line xenograft in female nude mice; format: in vivo, female BALB/c nude mice; parameters: key to Biological Interpretation: Active: ΔT/ΔC≤40% is considered as therapeutically active; Very active: ΔT/ΔC<0% is considered as tumor regression (very active); Inactive: ΔT/ΔC>40% is considered as therapeutically inactive; conditions: for Tumor volume changes from baseline, Median: n = 7
Experimental: In the present study, the anti-tumor efficacy of 6-(2,4-dichlorophenyl)-5-[4-[(3S)-1-(3-fluoropropyl)pyrrolidin-3-yl]oxyphenyl]-8,9-dihydro-7H-benzo[7]annulene-2-carboxylic acid (“compound (1)”), combined with abemaciclib, was investigated after 22 days treatment against a subcutaneous MCF7-Y537S human breast cancer cell line xenograft in female nude mice.
The treated groups included compound (1) at 20 mg/kg alone, abemaciclib at 70 mg/kg alone, and the combination of compound (1) and abemaciclib at the same dose and regime,
Compound (1) was orally dosed twice a day (BID) and abemaciclib was orally dosed once a day (QD) for 22 days. Anti-tumor efficacy was evaluated by tumor volume measurement.
Female BALB/c nude mice were obtained from Shanghai Sino-British SIPPR/BK Laboratory Animal Co., LTD (Shanghai, CHINA). Animals were allowed to acclimate for at least four days before the study enrollment. Mice were 6 to 8 weeks old and weighed between 18 and 24 grams at the beginning of the treatments. These animals were housed under conditions outlined in the guidelines approved by the Institutional Animal Care and Use Committee (IACUC) of WuXi AppTec following the guidance of the Association for Assessment and Accreditation of Laboratory Animal Care (AAALAC).
Parental MCF7 cells were obtained from the American Type Culture Collection (ATCC® HTB-22™). MCF7-Y537S (ESR1) cell line was MCF7 cells expressing the ER.Y537S variant that was generated by Sanofi Biology Discovery Group. Y537S mutation was introduced in ESR1 construct (GenBank NM_000125.3) by site directed mutagenesis (Toy W. et al., Cancer Discovery, 2017, 7, 277-287). The construct was transfected in MCF7 cells which were selected for their growth in absence of estradiol. MCF-Y537S is an ESR1 mutation that confers estrogen-independent activity to ERα (Estrogen Receptor alpha) and contributes to endocrine resistant disease (Robinson D. R. et al., Nat Genet., 2013, 45 (12), 1446-1451). The cells were grown in Eagle's Minimum Essential Medium (EMEM) supplemented with 10% fetal bovine serum (FBS), human Insulin, in 5% CO2 at 37° C. The cells were harvested in 0.25% Trypsin EDTA and washed by Phosphate Buffered Saline (PBS) and re-suspended in PBS with 75% Matrigel. The cells (20×10^6 cells/per mouse) were subcutaneously (SC) implanted into the right flank of female nude mice.
When the MCF7-Y537S tumors were established, the tumors were reserved as tumor stocks for fragment implantation. The tumors were serially propagated through fragment tissue transplantation subcutaneously. The fragment tumor tissues were subcutaneously implanted into the right flank of female nude mice. 28 mice were assigned in this experiment.
Abemaciclib (Manufacturer: Sanofi; Lot number: VAC.DLE20.006.1) was formulated in 40% SBE-β-CD in HCl 0.1N pH 3.0. Compound (1) was prepared in 5% Solutol HS15 (purchased from Sigma) at pH 3.0.
Dose volume for compound (1) and abemaciclib for oral administration: 10 ml/kg by oral gavage.
Doses: compound (1) at 20 mg/kg and abemaciclib at 70 mg/kg in the above volume.
The animals required for experiment (plus extra) were pooled and implanted with MCF7-Y537S tumor fragment tissues. On day 0 (20 days post implantation), the mice were pooled and randomly distributed to the treatment and control groups (7 mice per group), where median tumor volumes for each group was 173 mm^3. Treatments of compound (1) and abemaciclib were initiated on day 0. Compound (1) was orally administered at 20 mg/kg BID (8 hours apart) and abemaciclib was orally administered at 70 mg/kg QD, for 22 days. Animal body weight was assessed daily.
The dosages are expressed in mg/kg and based on daily body weight per animal. Vehicle treated animals were used as controls. Mice were checked daily and adverse clinical reactions noted. Individual mice were weighed daily until the end of the experiment. Mice would be euthanized when morbid or weight loss ≥20% was observed. […]

[3] = day 22, PO for 22 days, compound (1) 20 mg/kg BID, abemaciclib 70 mg/kg QD, alone or combined

In the case of `CCN1CCN(Cc2ccc(Nc3ncc(F)c(-c4cc(F)c5nc(C)n(C(C)C)c5c4)n3)nc2)CC1` [Abemaciclib, N-{5-[(4-ethylpiperazin-1-yl)methyl]pyridin-2-yl}-5-fluoro-4-[4-fluoro-2-methyl-1-(propan-2-yl)-1H-benzimidazol-6-yl]pyrimidin-2-amine], the Body weight loss ([1]; compound (1) 20 mg/kg BID, abemaciclib 70 mg/kg QD, alone or combined, 22 days, PO) is reported as “no significant body weight loss”, the “Unscheduled death (Day of death)” value ([1]; deaths / animals in group, 22 days treatment) is reported as 0/7 and the “Tumor volume changes from baseline, Median” value (from here on “Tumor volume changes”) ([2]; Day 4, compound (1) 20 mg/kg BID, abemaciclib 70 mg/kg QD, alone or combined) is reported as 9.0 mm^3. The “Tumor volume changes” value ([2]; Day 8, compound (1) 20 mg/kg BID, abemaciclib 70 mg/kg QD, alone or combined) was 40.0 mm^3, the “Tumor volume changes” value ([2]; Day 11, compound (1) 20 mg/kg BID, abemaciclib 70 mg/kg QD, alone or combined) was 83.0 mm^3 and the “Tumor volume changes” value ([2]; Day 15, compound (1) 20 mg/kg BID, abemaciclib 70 mg/kg QD, alone or combined) was 119.0 mm^3. For the same compound, the “Tumor volume changes” value ([2]; Day 18, compound (1) 20 mg/kg BID, abemaciclib 70 mg/kg QD, alone or combined) was 150.0 mm^3, the “Tumor volume changes” value ([2]; Day 22, compound (1) 20 mg/kg BID, abemaciclib 70 mg/kg QD, alone or combined) was 199.0 mm^3 and the “Regressions Complete” value ([2]; animals with complete regression / animals in group, 22 days treatment) was 0/7. The “Regressions Partial” value ([2]; animals with partial regression / animals in group, 22 days treatment) was 0/7, the “Biological Interpretation” value ([2]; based on ΔT/ΔC at day 22) was “Active” and the “Median % of regressions on day 22” value [2, 3] was 0%. The “ΔT/ΔC in % at day 22” value [2, 3] was 19% and the “Anti-tumor effect on tumor growth (in words)” value ([2]; day 22, versus control) was “statistically significant anti-tumor efficacy”.

— patent US20230404971A1, “Combination Comprising Abemaciclib and 6-(2,4-Dichlorophenyl)-5-[4-[(3S)-1-(3-Fluoropropyl)Pyrrolidin-3-yl]Oxyphenyl]-8,9-Dihydro-7H-Benzo[7]Annulene-2-Carboxylic Acid” (Sanofi, priority 2020, published 2023)
